Experimental data published in US8404747B2, “Compositions and methods for modulating interaction between polypeptides” (The General Hospital Corporation, priority 2004, dated 2013).
Where two headings read alike, the source gives them in different places. Values belong to the molecule of their own block, whether it stands above or below them.

Legend:
[1] = tested on: mutant Huntingtin transgene (htt); experiment: transgene (mutant htt, extended polyQ) expression in inducible PC12 cells; assay type: cell-based, rat; details: PC12 cells, with scriptaid
Description: (§1) The compound C9 (A33 in Table 1) has structural similarity to the histone deacetylase (HDAc) inhibitor, scriptaid (6-(1,3-Dioxo-1H,3H-benzo[de]isoquinolin-2-yl)-N-hydroxyhexanamide) (Su et al., Cancer Res. 60:3137, 2000; A5 in Table 1). We observed the most dramatic effect on expression level by C9 and scriptaid in the PC12 cell line 14A2/6 expressing the extended polyQ mutant htt(104Q). The effect of C9 on the down-regulation of polyQ expression, was similar to cystamine, a drug that has shown efficacy in a mouse model for Huntington's Disease (HD). […] 14A2/6 cells were at least 5-fold more responsive to chemical treatment than other cell lines tested.
Transcriptional dysregulation is a hallmark of HD. […] Expression of the polypeptide was under control of an inducible ecdysone receptor (EcR)-based promoter.

R2/6 HD mice = details: cited from earlier work
PC12 cells = experiment: rescue from scriptaid-dependent synthetic lethality in PC12 cells; assay type: cell-based, rat
Description: as §1

[2] = tested on: aggregation of 103Q in PC12 cells; experiment: polyQ (103Q) aggregation in ecdyson-inducible PC12 cells; assay type: cell-based, rat; details: Rattus norvegicus, PC-12
Description: To study the inhibitors we identified using the yeast screen in mammalian cells, we employed ecdyson-inducible rat phaeochromocytoma (PC12) cells. Compounds were tested in two clones, 14A2/5 and 14A2/6, with highest aggregation rate. We incubated undifferentiated PC12 cells with muristerone A to induce 103Q expression, and we exposed the cells to compounds at concentrations ranging from 1 to 10 μM. […] All compounds were non-toxic except C2, which was toxic at concentrations higher than 5 μM.
We tested these analogs at concentrations ranging from 0.025 μM to 5.0 μM for their effects on polyQ aggregation in PC12 cells. Among 24 analogs of C1; 28 analogs of C2; 24 analogs of C3, and 53 analogs of C4, we identified several potent inhibitors of polyQ aggregation. From our C2 focus library, we isolated compound C2-8 (B2 in Table 2), which inhibits polyQ aggregation with an IC50 value 50 nM. We also identified C2-10 (B6 in Table 2) and C2-11 (M16 (formula V(n)) in Table 5), and B7, B8 and B9 in Table 2. From our C3 focus library, we isolated compound C3-5 (M22 (formula V(t)) in Table 5) (having an IC50 value of 100 nM) and compound C3-6 (M17 (formula V(o)) in Table 5) (having an IC50 value of 5 μM). From our C4 library, we isolated compound C4-7 (A31 in Table 1), which has an IC50 value 100 nM. We also identified C4-34 (A3 in Table 1).

[3] = tested on: HD Q51 aggregates in Cos1 cells; experiment: HD Q51 aggregation in transfected Cos1 cells, cellulose acetate membrane trap; assay type: cell-based; details: Chlorocebus aethiops, COS-1; Cos1 cells transfected with HD Q51; read-out: IC50, polyQ aggregation (retained polyQ on membrane)
Description: The inhibitory activity we observed with C1-C4 in the PC12 cell model described above was confirmed in Cos1 cells transiently transfected with a CMV promoter-based DNA construct that encodes an Htt exon I fragment of Huntington's disease protein (Htt)) having 51 consecutive glutamine residues (HD Q51). When expressed in Cos1 cells, HD 51Q polypeptides readily form aggregates. Transfected Cos1 cells were incubated with C1-C4 compounds in culture medium and lysed. The lysates were then heat-denatured in SDS and passed through a cellulose acetate membrane, which captures aggregated, but not soluble polypeptides. Polyglutamine aggregates trapped on membranes were detected by immunostaining with antibody specific to extended polyQ. Pre-incubation of cells with compounds C1, C3, and C4 decreased the amount of retained polyQ, indicating inhibitory effects on polyQ aggregation. The IC50 for compound C1 was 10 μM and the IC50 for compounds C3 and C4 was 5 μM. As C2 was toxic for Cos1 cells, its effect on aggregation was not determined.

[4] = target: T1, Recombinant HD Q51 polypeptide (Homo sapiens, UniProt P42858, INS38QQQQQQQQQQQQQQQQQQQQQQQQQQQQQQ); experiment: cell-free trap assay of purified polyQ; assay type: biochemical; details: cell-free trap assay; read-out: IC50, aggregation of purified polyQ
T1 construct: made in house
Description: To determine whether C2 could directly interfere with polyQ aggregation, we reproduced this process in vitro and assayed the inhibitory effects of the compounds in a cell-free trap assay. Recombinant HD Q51 polypeptide, purified from bacteria, was incubated in the presence or in the absence of C2 for a time sufficient to allow aggregation. Then, upon heat-denaturation in SDS buffer, samples were filtered through a cellulose acetate membrane. Harsh denaturation conditions separated unaggregated soluble peptides, which passed through the membrane, and insoluble aggregates, which were retained on the membrane. The polyQ aggregates trapped on the membrane were subsequently immunostained and quantified.
Congo Red, which is structurally unrelated to C2-8, was used as a control.

[5] = tested on: polyQ aggregates (HD Q150) in neurons of R6/2 mouse brain slices; experiment: polyQ aggregation in R6/2 brain slice cultures; assay type: cell-based; details: 3-week time point
Description: The effects of the selected compounds on polyQ aggregation in neuronal tissues were assessed in brain slice cultures from the transgenic mouse R6/2 model of HD. R6/2 mice ubiquitously express human Huntingtin exon I containing 150Q (HD Q150), which causes neuropathology resembling key neurological changes in HD patients. Formation of neuronal polyQ aggregates precedes pathological behavioural changes in R6/2 mice. An organotypic slice culture assay has been developed in order to establish an ex vivo system that closely models the process of aggregation occurring in R6/2 mouse brains. […] The potency of any aggregate inhibitor can be assessed directly in neurons in brain slices (thus bypassing the blood brain barrier, the major obstacle to test compounds in neuronal tissues).
Aggregation in brain slice cultures was assessed during four weeks using three parameters: (1) the number of aggregates per square millimeter, (2) the density of individual aggregates, and (3) the size of the aggregates. These parameters can be assessed in any of the assays described herein. […] To obtain statistically significant data, 20 sections for each sample were quantified with a macro computer program (Paul Wetton at Image Associates, UK), which measured aggregate count, aggregate density and aggregate size. […]

HDAc = HDAc activity; assay type: biochemical; details: at high concentrations; down-regulation of HDAc 5
htt103Q-EGFP = experiment: PC12 htt103Q-EGFP fluorescence assay; assay type: cell-based; details: PC12 cells
Description: A PC12 cell line was engineered to express extended polyQ under the control of an ecdysone-inducible promoter. In the assay cell line, an N-terminal fragment of htt containing an extended polyQ tract was stably expressed as a fusion with EGFP (htt103Q-EGFP), from the pIND vector. Expression of extended polyQ in these cells was controlled by addition of an ecdysone analog, in this case muristerone A. In this assay, EGFP fluorescence directly correlated with htt103Q-EGFP expression levels. This system was designed to assess the effects of specific compounds on overall levels of extended polyglutamines in cells, using a simple fluorescent-based read-out.

[6] = tested on: SP1 trancription factor binding motif (6XSP1) promoter; experiment: 6XSP1 luciferase transcription-based assay in 111Q/111Q striatum double knock-in cells; assay type: cell-based, mouse; details: 6XSP1 luciferase reporter; for transcription activation: CG4 among CG series, less potent than C9-4
Description: FIGS. 1A-1C. FIG. 1A is a bar graph showing luciferase expression in Sp1-luc/111Q striatum double knock-in cells following treatment with different compounds, as indicated. Fluorescence was measured 24 hours after addition of compound. FIG. 1B is a bar graph as described in FIG. 1A. Fluorescence was measured 48 hours after addition of compound. FIG. 1C is a bar graph as described in FIG. 1A. Fluorescence was measured 72 hours after addition of compound.
We conducted structure activity relationship (SAR) studies to optimize transcription activation. We developed a novel transcription-based assay for this purpose. A luciferase reporter gene was stably integrated into 111Q/111Q striatum double knock-in cells and constitutively expressed under control of a promoter containing six copies of the SP1 trancription factor binding motif (6XSP1). In this system, C9 was determined to have an EC200 of 7.5 μM.

cells = experiment: nonspecific toxicity to cells; assay type: cell-based
[7] = tested on: polyQ-containing polypeptides; experiment: aggregation of polyQ-containing polypeptides, assay not specified
[8] = PC12 clones 14A2/5 and 14A2/6, muristerone A induced, 1 to 10 μM, read-out: IC50, aggregation of 103Q
[9] = PC12 cells, focus library analogs, 0.025 μM to 5.0 μM, read-out: IC50, polyQ aggregation

T1 sequence (P42858 with tags, fused parts or gaps with the stated changes): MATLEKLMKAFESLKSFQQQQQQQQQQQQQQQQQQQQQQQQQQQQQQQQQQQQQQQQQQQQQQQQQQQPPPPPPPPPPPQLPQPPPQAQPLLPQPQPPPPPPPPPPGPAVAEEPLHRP

SMILES: NCCSSCCN [cystamine, reference compound]
- effect on scriptaid-stimulated expression and aggregation [1]: reversed the stimulatory effect
- protein aggregation (R2/6 HD mice): blocked protein aggregation
- survival (R2/6 HD mice): prolonged the survival
- rescue from scriptaid-dependent synthetic lethality (PC12 cells): rescued

- IC50 [2, 8]: 5 µM
SMILES: CC/C(=C/c1sc2ccc3ccccc3c2[n+]1CCCS(=O)(=O)[O-])SC [Compound C3, 3-[2-(2-Methylsulfanyl-but-1-enyl)-naphtho[1,2-d]thiazol-1-yl]-propane-1-sulfonic acid anion]
- IC50 [3]: 5 µM

- IC50 [2, 9]: 5 µM
SMILES: c1ccc(-c2nc3cnc4ccccc4c3s2)cc1 [Compound C3-6, 2-Phenyl-thiazolo[4,5-c]quinoline]

- IC50 [2, 8]: 10 µM
SMILES: CN(C)CCN1C(=O)c2ccc(Cl)c3c(Cl)ccc(c23)C1=O [Compound C1, 6,7-Dichloro-2-(2-dimethylamino-ethyl)-benzo[de]isoquinoline-1,3-dione]
- IC50 [3]: 10 µM

- IC50 [4]: 25 µM
- IC50 [2, 9]: 0.05 µM
SMILES: O=C(Nc1ccc(Br)cc1)c1cccc(S(=O)(=O)Nc2ccc(Br)cc2)c1 [Compound C2-8, N-(4-Bromo-phenyl)-3-(4-bromo-phenylsulfamoyl)-benzamide]
- concentration inhibiting aggregates intensity and area [5]: 10 µM

SMILES: O=C1c2cccc3cccc(c23)C(=O)N1CCN1CCCCC1 [Compound C9-4, 2-(2-Piperidin-1-yl-ethyl)-benzo[de]isoquinoline-1,3-dione]
- HDAc inhibitory activity (HDAc): indirect HDAc inhibitory activity

SMILES: CCOC(=O)c1sc(NC(=O)c2cc(S(N)(=O)=O)c(Cl)cc2Cl)c(C(=O)OCC)c1C [Compound D4, 5-(2,4-Dichloro-5-sulfamoyl-benzoylamino)-3-methyl-thiophene-2,4-dicarboxylic acid diethyl ester]
- effect on protein aggregation (htt103Q-EGFP): inhibit protein aggregation

SMILES: CN(C)CCN1C(=O)c2cccc3cccc(c23)C1=O [Compound C9-1B, 2-(2-Dimethylamino-ethyl)-benzo[de]isoquinoline-1,3-dione]
- EC200, transcription activation [6]: 50 nM
- range of weak nonspecific toxicity (cells): 1.25 to 5.0 µM

SMILES: CCN1C(=O)c2cccc3c(NC(C)=O)ccc1c23 [CG4, N-(1-Ethyl-2-oxo-1,2-dihydro-benzo[cd]indol-6-yl)-acetamide]
- transcription activation [6]: most potent transcriptional activator

SMILES: O=C1c2cccc3cccc(c23)C(=O)N1CCNCO [Compound C9-3, 2-[2-(Hydroxymethyl-amino)-ethyl]-benzo[de]isoquinoline-1,3-dione]
- transcription activation [6]: did not effectively activate transcription

SMILES: CN(C)CCCN1C(=O)c2cccc3cccc(c23)C1=O [Compound C91, 2-(3-Dimethylamino-propyl)-benzo[de]isoquinoline-1,3-dione]
- effect on aggregation [7]: facilitate protein-protein aggregation
- EC200, transcription activation [6]: 4000 nM

SMILES: CCN(CC)C(=O)c1sc(NC(=O)c2ccc(F)cc2)c(C(=O)OC(C)C)c1C [Compound D3, 5-Diethylcarbamoyl-2-(4-fluoro-benzoylamino)-4-methyl-thiophene-3-carboxylic acid isopropyl ester]
- effect on protein aggregation (htt103Q-EGFP): facilitators of protein aggregation

- IC50 [2, 9]: 0.1 µM
SMILES: O=C1c2cccc3c(N4CCCCC4)ccc(c23)C(=O)N1CO [Compound C4-7, 2-Hydroxymethyl-6-piperidin-1-yl-benzo[de]isoquinoline-1,3-dione]

- IC50 [2, 8]: 2.5 µM
SMILES: O=C1c2cccc3c(N4CCOCC4)ccc(c23)C(=O)N1Cc1ccccc1 [Compound C4, 2-Benzyl-6-morpholin-4-yl-benzo[de]isoquinoline-1,3-dione]
- IC50 [3]: 5 µM
